From PubChem BioAssay (NCI)
Several values for one entry are separate records, joined by “and”; a condition that tells them apart may be missing. Identical values can stand only once.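 Interpolation was linear, between the two tested concentrations surrounding the appropriate level; five concentrations were tested over 48 hours in 96-well plates. GI50 marks 50% less growth. TGI marks complete inhibition of growth.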

Legend:
Assay in all cases: NCI tumour cell line growth inhibition, 48 h
M19-MEL melanoma = tested on: M19-MEL melanoma
SNB-78 CNS = tested on: SNB-78 CNS
DLD-1 colon = tested on: DLD-1 colon
RXF-631 renal = tested on: RXF-631 renal
KM20L2 colon = tested on: KM20L2 colon
P388/ADR leukemia = tested on: P388/ADR leukemia
P388 leukemia = tested on: P388 leukemia
MDA-N = tested on: MDA-N
T-47D breast = tested on: T-47D breast
MCF7 breast = tested on: MCF7 breast
BT-549 breast = tested on: BT-549 breast

| Structure (SMILES) | TGI (M19-MEL melanoma) | TGI (SNB-78 CNS) | TGI (DLD-1 colon) | TGI (RXF-631 renal) [µM] | TGI (KM20L2 colon) | also measured |
| --- | --- | --- | --- | --- | --- | --- |
| COC(=O)C(=O)C(C(=O)OC)C(=O)C(=O)Nc1c(C)cccc1C (centres undefined) | > 100 µM | > 100 µM | > 100 µM | > 100 | > 100 µM | – |
| O=C1[C@@H]2C(c3ccc(Br)cc3)=NO[C@@H]2C(=O)N1c1ccc(Cc2ccc(N3C(=O)[C@H]4C(c5ccc(Br)cc5)=NO[C@H]4C3=O)cc2)cc1 | > 40 µM | > 40 µM | > 40 µM | > 40 | > 40 µM | GI50 (M19-MEL melanoma): > 40 µM; GI50 (SNB-78 CNS): > 40 µM; GI50 (DLD-1 colon): > 40 µM; GI50 (KM20L2 colon): > 40 µM |
| Cc1ccc(NC(=O)CCCC(=O)CC(=O)c2ccc(Br)cc2)cc1 | > 100 µM | > 100 µM | > 100 µM | > 100 | > 100 µM | – |
| O=S1(=O)N2CN3CN(C2)CN1C3 | 337 µM | 118 µM | 96.8 µM and 97.5 µM | – | 180 µM | TGI (P388/ADR leukemia): 44 µM; GI50 (DLD-1 colon): 30.1 µM; TGI (P388 leukemia): 47.6 µM; GI50 (KM20L2 colon): 37.1 µM |
| O=[N+]([O-])c1ccc(C2=Nc3ccccc3S(=O)C(c3ccccc3)C2)cc1 (centres undefined) | 29.6 µM | – | 38.4 µM | 40.1 | 57.8 µM | – |
| CCCCC1=CSC(c2ccccc2)=C(c2ccccc2)S1 | > 100 µM | > 100 µM | > 100 µM | > 100 | > 100 µM | – |
| COc1ccccc1NC(=O)C1=C(C)NC(C)=C(C(=O)Nc2ccccc2OC)C1c1ccccc1[N+](=O)[O-] | 49 µM | > 100 µM | 36.5 µM | 53.6 | – | – |
| CC(C)(C)c1cc(CCC(=O)Nc2ccc(Cl)cc2)[nH]c(=S)n1 | > 100 µM | – | > 100 µM | > 100 | > 100 µM | – |
| Nc1nncc2c1c(Br)cn2C1OC(CO)C(O)C1O (centres undefined) | > 100 µM | > 100 µM | > 53 µM | > 100 | > 100 µM | – |
| NC(=O)c1ccc2c(c1)-c1nc-2nc2[n-]c(nc3nc(nc4[n-]c(n1)c1ccc(C(N)=O)cc41)-c1ccc(C(N)=O)cc1-3)c1ccc(C(N)=O)cc21.[Co+2] | – | > 50 µM | > 50 µM | > 50 | > 50 µM | GI50 (SNB-78 CNS): > 50 µM; GI50 (DLD-1 colon): 43.5 µM; GI50 (RXF-631 renal): > 50 µM; GI50 (KM20L2 colon): > 50 µM |
| CC(C)N(C(=O)C12C3C4C1C1C2C3C41C#N)C(C)C (centres undefined) | > 100 µM | > 100 µM | > 100 µM | > 100 | > 100 µM | – |
| Cc1ccc(C(=O)CC2(O)C(=O)Nc3c(C)cc(Cl)cc32)cc1 (centres undefined) | – | > 100 µM | > 100 µM | > 100 | > 100 µM | – |
| COC(=O)CCSC(=O)Nc1ccc(N=Nc2ccccc2)cc1 | > 100 µM | > 100 µM | > 100 µM | > 100 | 76.3 µM | – |
| COc1ccc(N2C(=O)c3c(c4[nH]c5ccccc5c4c4ccc(C(C)(C)C)cc34)C2=O)cc1 | > 100 µM | 60 µM | > 100 µM | > 100 | > 100 µM | – |
| COC1=C(N)C(=O)c2nc(-c3nc(C(=O)O)c(C)c(-c4ccc(OC)c(OC)c4O)c3N)ccc2C1=O | 0.0224 µM and 0.0234 µM | 0.0324 µM and 0.0996 µM | 0.0524 µM | – | 1.12 µM and 0.184 µM | TGI (P388/ADR leukemia): 0.402 µM; GI50 (MDA-N): 0.0117 µM; TGI (MDA-N): 0.0269 µM and 0.0153 µM; TGI (P388 leukemia): 0.473 µM |
| Cc1ccc(NC(=O)CCc2nc(=S)[nH][nH]2)cc1 | > 100 µM | > 100 µM | > 100 µM | > 100 | > 100 µM | – |
| COC(=O)NC1C(C)OC(OC2C/C=C(/C)C3C=CC4C(OC5CC(OC6CCC(OC7CC(O)C(OC8CCC(O)C(C)O8)C(C)O7)C(C)O6)C(OC(C)=O)C(C)O5)C(C)CC(C)C4C3(C)/C(O)=C3/C(=O)OC4(CC(C=O)=CC(O)C4/C=C\2C)C3=O)CC1(C)[N+](=O)[O-] (centres undefined) | 2.02 µM and 0.473 µM | 15.4 µM and 26.7 µM | 11.7 µM and 1.8 µM | 10.8 | 3.68 µM and 1.42 µM | GI50 (M19-MEL melanoma): 0.0982 µM; GI50 (SNB-78 CNS): 0.59 µM; TGI (P388/ADR leukemia): 17.3 µM; GI50 (DLD-1 colon): 0.427 µM; TGI (T-47D breast): 10.2 µM; TGI (MDA-N): 3.52 µM; TGI (P388 leukemia): 2.05 µM; TGI (MCF7 breast): 4.01 µM; TGI (BT-549 breast): 2.18 µM; GI50 (KM20L2 colon): 0.365 µM |
| CCOC(=O)C(C)(NC(=O)c1ccc(NCc2ccc3nc(NC(=O)c4ccccc4)nc(NC(=O)c4ccccc4)c3c2)cc1)C(=O)OCC | 24.9 µM | 45.4 µM | > 100 µM | 51 | 85.3 µM | – |
| COc1cc2ccc3c4ccccc4cnc3c2cc1OC | > 100 µM | > 100 µM | > 100 µM | > 100 | > 100 µM | – |
| Nc1ccc2n[se]nc2c1 | > 100 µM | > 100 µM | > 100 µM | > 100 | > 100 µM | – |
| COC1C2C[C@@H](O)CCC2C(C(=O)OCCl)C[C@H]1O (some centres undefined) | > 100 µM | > 100 µM | > 100 µM | > 100 | > 100 µM | – |
